# Patent US20100022637A1, “IDENTIFICATION OF ANTI-CANCER COMPOUNDS AND COMPOUNDS FOR TREATING HUNTINGTON'S DISEASE AND METHODS OF TREATMENT THEREOF” (THE TRUSTEES OF COLUMBIA UNIVERSITY IN THE CITY OF NEW YORK, priority 2005, published 2010)
# pEC50: −log10 of the molar value.
# Columns and labels:
# RKO-E6 cells = assay: Alamar Blue viability assay, RKO-E6; format: cell-based, human; conditions: in words; for effect on doxorubicin's lethality in RKO-E6 cells: co-treatment with 0.5 μg/ml doxorubicin, 24 h
# Procedure: RKO colon carcinoma, human (ATCC, order # CRL-2577), RKO-E6 colon carcinoma transfected with HPV E6 inserted in pCMV.3 (ATCC, order # CRL-2578) were grown in MEM with 2 mM L-glutamine and Earle's BBS adjusted to contain 1.5 g/L NaHCO3, 0.1 mM non-essential amino acids and 1.0 mM sodium pyruvate, and supplemented with 10% fetal bovine serum, penicillin and streptomycin (pen/strep). Both cell lines were incubated at 37° C. in a humidified incubator containing 5% CO2.
# The Alamar Blue assay incorporates a fluorimetric/colorimetric growth indicator that changes color in the response to chemical reduction by viable cells (Nociari 1998). Cells were seeded at a density of 3,000 cells (57 μl) per well in a 384-well black, clear-bottom plates using a syringe bulk dispenser (Zymark Sciclone ALH). Three microliters were removed from a compound daughter plate using a 384 fixed cannula head and added to the assay plate, making the final concentration 4 μg/ml. The plates were incubated for 24 h at 37° C. 10 μl of 40% Alamar Blue (Biosource Int., cat #DAL1100) solution in media was added to each well (1:10 dilution). The assay plates were incubated for 16h. Fluorescence intensity was determined using a Packard Fusion platereader with a 535 nm excitation filter and a 590 nm emission filter. The average fluorescence for the whole plate was used as a positive control. Average percentage inhibition for each well was determined using our freely available SLIMS software (Kelley et al., 2004).
# The daughter plates for the 2-fold dilution series were prepared with a Zymark Sciclone ALH by diluting the replica daughter plates to obtain compound concentrations from 8 μg/ml-0.008 μg/ml (columns 8-18). Columns 1-7 were used as untreated control. RKO-E6 cells were seeded at the density of 3,000 per well in 55 μl, and 5 μl were added from the daughter plate. RKO cells were seeded at the density of 2,000 per well in 55 μl, and 5 μl were added from the daughter plate. The assay was incubated for 24 h at 37° C. 10% Alamar Blue was added to each well and the assay was incubated for 16 h (see above). Compounds for retesting were purchased from the manufacturers or from Sigma-Aldrich (see above). Stocks were prepared in DMSO at 4 mg/ml.
# Each cell line (RKO, RKO-E6, HeLa and TC32) was treated with a dose combination matrix of doxorubicin and a selected hit compound. Each treatment was done in a triplicate in 384-well format. The average percent inhibition of cell proliferation, measured with Alamar Blue, was determined using the following formula: […]
# [1] = Rescue and toxicity of Compound 164 and analogs (Table 4); conditions: for TC50: Table 4, toxicity; for Max % Toxicity / Max % Rescue: Table 4, cell model not stated
Compound,pEC50 [1],TC50 [1] [nM],Max % Toxicity [1] [%],other results
CCCCCC(O)C=CC1CCC(=O)C1CCCCCCC(=O)O (stereo not drawn) [11-deoxyprostaglandin E1],–,–,–,effect on doxorubicin's lethality in RKO-E6 cells (RKO-E6 cells): showed no activity
"COc1ccc(CN(CCC(c2ccccc2)C2CCOC(C)(C)C2)C(=O)c2ccco2)cc1OC (stereo not drawn) [Compound 164-5, N-(3,4-dimethoxybenzyl)-N-[3-(2,2-dimethyltetrahydro-2H-pyran-4-yl)-3-phenylpropyl]-2-furamide]",6.70,6000,18.43,–
COc1ccc(CN(CCC2(c3ccc(C)cc3)CCOC(C)(C)C2)C(=O)c2ccco2)cc1 (stereo not drawn) [Compound 164-6],7.00,3000,60.14,–
COc1ccc(CN(CCC(c2ccc(OC(C)C)cc2)C(C)C)C(=O)c2ccco2)cc1 (stereo not drawn) [Compound 164-7],7.00,400,63.90,–
COc1ccc(CN(CCC2(c3ccccc3)CCOC(C)(C)C2)C(C)=O)cc1OC (stereo not drawn) [Compound 164-9],–,–,19.60,Max % Rescue [1]: 28.56%
"COc1ccccc1C1(CCN(Cc2ccccc2)C(=O)c2ccco2)CCOC(C)(C)C1 (stereo not drawn) [Compound 164-10, 2-Furancarboxamide, N-(phenylmethyl)-N-[2-[tetrahydro-4-(2-methoxyphenyl)-2,2-dimethyl-2H-pyran-4-yl]ethyl]-(9CI)]",6.70,1700,62.27,–
"COc1ccc(C2c3cc(OC)c(OC)cc3CCN2C(=O)c2ccco2)cc1OC (stereo not drawn) [Compound 164-11, Isoquinoline, 1-(3,4-dimethoxyphenyl)-2-(2-furanylcarbonyl)-1,2,3,4-tetrahydro-6,7-dimethoxy-(9CI)]",–,–,–,Max % Rescue [1]: 7.95%
"CC(=O)N(CCC1(c2ccc(C)cc2)CCOC(C(C)C)C1)Cc1ccco1 (stereo not drawn) [Compound 164-12, N-(2-furylmethyl)-N-{2-[2-isopropyl-4-(4-methylphenyl)tetrahydro-2H-pyran-4-yl]ethyl}acetamide]",–,8000,60.37,–
"CC(c1ccccc1)N(CCC(c1ccccc1)C1CCOC(C)(C)C1)C(=O)c1ccco1 (stereo not drawn) [Compound 164-13, N-[3-(2,2-dimethyltetrahydro-2H-pyran-4-yl)-3-phenylpropyl]-N-(1-phenylethyl)-2-furamide]",–,4000,55.74,–
"COc1ccc(CN(CCC(c2ccc(OC)cc2)C2CCOC(C)(C)C2)C(=O)c2ccco2)cc1 (stereo not drawn) [Compound 164-14, N-[3-(2,2-dimethyltetrahydro-2H-pyran-4-yl)-3-(4-methoxyphenyl)propyl]-N-(4-methoxybenzyl)-2-furamide]",6.70,2000,53.80,–
"CCC(=O)N(CCC1(c2ccc(F)cc2)CCOC(C)(C)C1)Cc1ccc(OC)c(OC)c1 (stereo not drawn) [Compound 164-15, Propanamide, N-[(3,4-dimethoxyphenyl)methyl]-N-[2-[4-(4-fluorophenyl)tetraydro-2,2-dimethyl-2H-pyran-4-yl}ethyl]-(9CI)]",–,–,–,Max % Rescue [1]: 48.92%
"CC1(C)CC(CCN(Cc2ccccc2)C(=O)c2ccco2)(c2ccccc2)CCO1 (stereo not drawn) [Compound 164-16, 2-Furancarboxamide, N-(phenylmethyl)-N-[2-(tetrahydro-2,2-dimethyl-4-phenyl-2H-pyran-4-yl)ethyl]-(9CI)]",6.70,–,53.14,CC50 [1]: 8000 nM
"O=C(c1ccco1)N1CCN(Cc2ccc3c(c2)OCO3)CC1 [Compound 164-17, 1-(1,3-benzodioxol-5-ylmethyl)-4-(2-furoyl)piperazine]",–,–,31.31,–
"COc1cccc(CN2CCN(C(=O)c3ccco3)CC2)c1 [Compound 164-18, 1-(2-furoyl)-4-(3-methoxybenzyl)piperazine]",–,–,12.00,–
"COc1ccc(CN2CCN(C(=O)c3ccco3)CC2)cc1OC [Compound 164-19, 1-(3,4-dimethoxybenzyl)-4-(2-furoyl)piperazine]",4.72,–,27.77,–
COc1ccc(CN(CCC2(c3ccccc3)CCOC(C)(C)C2)C(=O)c2ccco2)cc1OC (stereo not drawn) [Compound 164],5.00,–,1.27,–
"CCCCCCCCCCCCCCCC[N+](C)(C)C.[Br-] [cetrimonium bromide, cetyltrimethylammonium bromide]",–,–,–,effect on doxorubicin's lethality in RKO-E6 cells (RKO-E6 cells): selectively increased doxorubicin's lethality; effect on camptothecin's lethality (RKO-E6 cells; co-treatment with camptothecin): did not synergize with camptothecin
O[C@H]1[C@H]2c3cc4c(cc3CN3CC[C@H](C[C@@H]1O)[C@H]23)OCO4 [dihydrolycorine],–,–,–,effect on doxorubicin's lethality in RKO-E6 cells (RKO-E6 cells): potentiated doxorubicin's lethality
CC[C@H]1CN2CCc3cc(OC)c(OC)cc3[C@@H]2C[C@@H]1C[C@H]1NCCc2cc(OC)c(OC)cc21 [emetine],–,–,–,effect on doxorubicin's lethality in RKO-E6 cells (RKO-E6 cells): potentiated doxorubicin's lethality
NC(=O)NO [hydroxyurea],–,–,–,effect on doxorubicin's lethality in RKO-E6 cells (RKO-E6 cells): only modest upregulation of doxorubicin's lethality
"Propanamide, N-[(3,4-dimethoxyphenyl)methyl]-N-[2-(tetrahydro-2,2-dimethyl-4-phenyl-2H-pyran-4-yl)ethyl]-(9CI) [Compound 164-8]",–,–,–,Max % Rescue [1]: 51.48%
